Reference: PubChem BioAssay (NCI)
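The compound was tested at five concentrations on cells cultured in 96-well plates, with a 48-hour exposure period. Definition used: TGI = concentration required for complete inhibition of growth.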

Experiments:
Assay in all cases: NCI tumour cell line growth inhibition, 48 h
CCRF-CEM leukemia = tested on: CCRF-CEM leukemia
COLO 205 colon = tested on: COLO 205 colon
DMS 114 small cell lung = tested on: DMS 114 small cell lung
HCT-116 colon = tested on: HCT-116 colon
HOP-62 NSCLC = tested on: HOP-62 NSCLC
IGROV1 ovarian = tested on: IGROV1 ovarian
KM20L2 colon = tested on: KM20L2 colon
LOX IMVI melanoma = tested on: LOX IMVI melanoma
M14 melanoma = tested on: M14 melanoma
MALME-3M melanoma = tested on: MALME-3M melanoma
NCI-H23 lung = tested on: NCI-H23 lung
NCI-H460 lung = tested on: NCI-H460 lung
NCI-H522 lung = tested on: NCI-H522 lung
OVCAR-4 ovarian = tested on: OVCAR-4 ovarian
OVCAR-5 ovarian = tested on: OVCAR-5 ovarian
RXF 393 renal = tested on: RXF 393 renal
SK-MEL-2 melanoma = tested on: SK-MEL-2 melanoma
SR leukemia = tested on: SR leukemia
U251 CNS = tested on: U251 CNS
UO-31 renal = tested on: UO-31 renal

Measured: TGI

CN(C(=O)c1ccccc1)c1ccc2c(c1)C(=O)c1ccccc1C2=O
> 100 µM: all assays above
